Source: ChEMBL document CHEMBL4265942, “Four new antitumor metabolites isolated from a mutant 3-f-31 strain derived from Penicillium purpurogenum G59” (Eur J Med Chem, 2018)

How the values were obtained:
HepG2 [1] = experiment: Antiproliferative activity against human HepG2 cells assessed as inhibition of cell growth at 100 uM after 72 hrs by sulforhodamine B assay relative to control; assay type: functional; conditions: HepG2, 72 h
HL-60 [2] = experiment: Antiproliferative activity against human HL60 cells assessed as inhibition of cell growth at 100 uM after 72 hrs by MTT assay relative to control; assay type: functional; conditions: HL-60, 72 h
A549 [3] = experiment: Antiproliferative activity against human A549 cells assessed as inhibition of cell growth at 100 uM after 72 hrs by sulforhodamine B assay relative to control; assay type: functional; conditions: A549, 72 h
HeLa [4] = experiment: Antiproliferative activity against human HeLa cells assessed as inhibition of cell growth at 100 uM after 72 hrs by sulforhodamine B assay relative to control; assay type: functional
NCI-H1975 [5] = experiment: Antiproliferative activity against human NCI-H1975 cells assessed as inhibition of cell growth at 100 uM after 72 hrs by sulforhodamine B assay relative to control; assay type: functional; conditions: NCI-H1975, 72 h
BXPC-3 [6] = experiment: Antiproliferative activity against human BxPC3 cells assessed as inhibition of cell growth at 100 uM after 72 hrs by sulforhodamine B assay relative to control; assay type: functional; conditions: BXPC-3, 72 h
PANC-1 [7] = experiment: Antiproliferative activity against human PANC1 cells assessed as inhibition of cell growth at 100 uM after 72 hrs by sulforhodamine B assay relative to control; assay type: functional; conditions: PANC-1, 72 h
MCF7 [8] = experiment: Antiproliferative activity against human MCF7 cells assessed as inhibition of cell growth at 100 uM after 72 hrs by sulforhodamine B assay relative to control; assay type: functional; conditions: MCF7, 72 h
HT-29 [9] = experiment: Antiproliferative activity against human HT-29 cells assessed as inhibition of cell growth at 100 uM after 72 hrs by sulforhodamine B assay relative to control; assay type: functional; conditions: HT-29, 72 h
LS180 [10] = experiment: Antiproliferative activity against human LS180 cells assessed as inhibition of cell growth at 100 uM after 72 hrs by sulforhodamine B assay relative to control; assay type: functional; conditions: LS180, 72 h
SW480 [11] = experiment: Antiproliferative activity against human SW480 cells assessed as inhibition of cell growth at 100 uM after 72 hrs by sulforhodamine B assay relative to control; assay type: functional; conditions: SW480, 72 h
HCT-116 [12] = experiment: Antiproliferative activity against human HCT116 cells assessed as inhibition of cell growth at 100 uM after 72 hrs by sulforhodamine B assay relative to control; assay type: functional; conditions: HCT-116, 72 h
K562 [13] = experiment: Antiproliferative activity against human K562 cells assessed as inhibition of cell growth at 100 uM after 72 hrs by MTT assay relative to control; assay type: functional; conditions: K562, 72 h
PC-3 [14] = experiment: Antiproliferative activity against human PC3 cells assessed as inhibition of cell growth at 100 uM after 72 hrs by sulforhodamine B assay relative to control; assay type: functional; conditions: PC-3, 72 h
HT-29 [15] = experiment: Antiproliferative activity against human HT-29 cells assessed as inhibition of cell growth after 72 hrs by sulforhodamine B assay; assay type: functional, cell-based; conditions: HT-29, 72 h
HCT-116 [16] = experiment: Down regulation of STAT3 expression in human HCT116 cells after 48 hrs by Western blot analysis; assay type: functional, cell-based
SW480 [17] = experiment: Antiproliferative activity against human SW480 cells assessed as inhibition of cell growth after 72 hrs by sulforhodamine B assay; assay type: functional, cell-based; conditions: SW480, 72 h
HeLa [18] = experiment: Antiproliferative activity against human HeLa cells assessed as inhibition of cell growth after 72 hrs by sulforhodamine B assay; assay type: functional, cell-based
HCT-116 [19] = experiment: Down regulation of Raf1 expression in human HCT116 cells after 48 hrs by Western blot analysis; assay type: functional, cell-based
HepG2 [20] = experiment: Antiproliferative activity against human HepG2 cells assessed as inhibition of cell growth after 72 hrs by sulforhodamine B assay; assay type: functional, cell-based; conditions: HepG2, 72 h
PC-3 [21] = experiment: Antiproliferative activity against human PC3 cells assessed as inhibition of cell growth after 72 hrs by sulforhodamine B assay; assay type: functional, cell-based; conditions: PC-3, 72 h
HCT-116 [22] = experiment: Antiproliferative activity against human HCT116 cells assessed as inhibition of cell growth after 72 hrs by sulforhodamine B assay; assay type: functional, cell-based; conditions: HCT-116, 72 h
PANC-1 [23] = experiment: Antiproliferative activity against human PANC1 cells assessed as inhibition of cell growth after 72 hrs by sulforhodamine B assay; assay type: functional, cell-based; conditions: PANC-1, 72 h
A549 [24] = experiment: Antiproliferative activity against human A549 cells assessed as inhibition of cell growth after 72 hrs by sulforhodamine B assay; assay type: functional, cell-based; conditions: A549, 72 h
LS180 [25] = experiment: Antiproliferative activity against human LS180 cells assessed as inhibition of cell growth after 72 hrs by sulforhodamine B assay; assay type: functional, cell-based; conditions: LS180, 72 h
HCT-116 [26] = experiment: Down regulation of phosphorylated STAT3 expression in human HCT116 cells after 48 hrs by Western blot analysis; assay type: functional, cell-based
K562 [27] = experiment: Antiproliferative activity against human K562 cells assessed as inhibition of cell growth after 72 hrs by MTT assay; assay type: functional, cell-based; conditions: K562, 72 h
BXPC-3 [28] = experiment: Antiproliferative activity against human BxPC3 cells assessed as inhibition of cell growth after 72 hrs by sulforhodamine B assay; assay type: functional, cell-based; conditions: BXPC-3, 72 h
HCT-116 [29] = experiment: Down regulation of survivin expression in human HCT116 cells after 48 hrs by Western blot analysis; assay type: functional, cell-based
L929 = experiment: Cytotoxicity against mouse L929 cells assessed as inhibition of cell growth after 72 hrs by MTT assay; assay type: cell-based; conditions: L929, 72 h
MCF7 [30] = experiment: Antiproliferative activity against human MCF7 cells assessed as inhibition of cell growth after 72 hrs by sulforhodamine B assay; assay type: functional, cell-based; conditions: MCF7, 72 h
HCT-116 [31] = experiment: Down regulation of ERK1/2 expression in human HCT116 cells after 48 hrs by Western blot analysis; assay type: functional, cell-based
HCT-116 [32] = experiment: Down regulation of AKT expression in human HCT116 cells after 48 hrs by Western blot analysis; assay type: functional, cell-based
HL-60 [33] = experiment: Antiproliferative activity against human HL60 cells assessed as inhibition of cell growth after 72 hrs by MTT assay; assay type: functional, cell-based; conditions: HL-60, 72 h
HCT-116 [34] = experiment: Down regulation of HSP90 expression in human HCT116 cells after 48 hrs by Western blot analysis; assay type: functional, cell-based
NCI-H1975 [35] = experiment: Antiproliferative activity against human NCI-H1975 cells assessed as inhibition of cell growth after 72 hrs by sulforhodamine B assay; assay type: functional, cell-based; conditions: NCI-H1975, 72 h
HCT-116 [36] = experiment: Antitumor activity against human HCT116 cells xenografted in BALB/c nu/nu mouse assessed as tumor growth inhibition at 5 mg/kg, iv administered every other day for 14 days measured 24 hrs post last dose relative to control; assay type: functional; conditions: HCT-116, iv, read-out: TGI
Mus musculus = experiment: Toxicity in BALB/c nu/nu mouse xenografted with human HCT116 cells assessed as spleen index at 5 mg/kg, iv administered every other day for 14 days measured 24 hrs post last dose (reference value: 0.41 +/- 0.08%); assay type: organism-based; conditions: in vivo

Compound	IC50 (HT-29 [15])	IC50 (SW480 [17])	IC50 (HeLa [18])	IC50 (HepG2 [20])	IC50 (PC-3 [21])	IC50 (HCT-116 [22])	IC50 (PANC-1 [23])	IC50 (A549 [24])	IC50 (LS180 [25])	IC50 (K562 [27])	IC50 (BXPC-3 [28])	IC50 (L929)	IC50 (MCF7 [30])	IC50 (HL-60 [33])	IC50 (NCI-H1975 [35])	other results
O=c1[nH]cc(F)c(=O)[nH]1 [FLUOROURACIL]																inhibition at 100 µM (HepG2 [1]): 41 to 95%; inhibition at 100 µM (HL-60 [2]): 41 to 95%; inhibition at 100 µM (A549 [3]): 41 to 95%; inhibition at 100 µM (HeLa [4]): 41 to 95%; inhibition at 100 µM (NCI-H1975 [5]): 41 to 95%; inhibition at 100 µM (BXPC-3 [6]): 41 to 95%; inhibition at 100 µM (PANC-1 [7]): 41 to 95%; inhibition at 100 µM (MCF7 [8]): 41 to 95%; inhibition at 100 µM (HT-29 [9]): 41 to 95%; inhibition at 100 µM (LS180 [10]): 41 to 95%; inhibition at 100 µM (SW480 [11]): 41 to 95%; inhibition at 100 µM (HCT-116 [12]): 41 to 95%; inhibition at 100 µM (K562 [13]): 41 to 95%; inhibition at 100 µM (PC-3 [14]): 41 to 95%
CCCCCC[C@@H](C)C[C@@H](C)/C=C/C(=O)N[C@@H]1C[C@@]2(O[C@@H]1O)[C@@H]1O[C@@H]1[C@](O)(CC(C)=O)[C@@H]1O[C@@H]12	10.2 µM	3.57 µM	6.25 µM	6.58 µM	7.6 µM	2.54 µM	4.42 µM	9.83 µM	17 µM	5.16 µM	7.3 µM	4.68 µM	4.11 µM	3.13 µM	3.37 µM	Activity (HCT-116 [16]): Dose-dependent effect; Activity (HCT-116 [19]): Dose-dependent effect; Activity (HCT-116 [26]): Dose-dependent effect; Activity (HCT-116 [29]): Dose-dependent effect; Activity (HCT-116 [31]): Dose-dependent effect; Activity (HCT-116 [32]): Dose-dependent effect; Activity (HCT-116 [34]): Dose-dependent effect
CC(=O)O[C@@]12CO[C@@H]1C[C@H](O)[C@@]1(C)C(=O)[C@H](O)C3=C(C)[C@@H](OC(=O)[C@H](O)[C@@H](NC(=O)OC(C)(C)C)c4ccccc4)C[C@@](O)([C@@H](OC(=O)c4ccccc4)[C@H]21)C3(C)C [DOCETAXEL ANHYDROUS]																inhibition in vivo at 5 mg/kg (HCT-116 [36]): 87.4%; Activity_index (Mus musculus): 0.25
CCCCCC[C@@H](C)C[C@@H](C)/C=C/C(N)=O	85.4 µM	55 µM	78.3 µM	78.3 µM	> 100 µM	> 100 µM	82.6 µM	59.4 µM	64.5 µM	62.5 µM	67.7 µM	13.5 µM	60.6 µM	51.5 µM	53.9 µM	
